Laboratory results reported in patent US4469692A, “Spiro derivatives of the pyrazolo [1,5-d] [1,2,4] triazine ring system and a process for the preparation thereof” (Alkaloida Vegyeszeti Gyar, priority 1981, dated 1984).
“Also recorded” adds a separate entry of the source.

What was measured:
[1] = Acute toxicity (LD50, lethality) in rabbits; settings: rabbit, in vivo; for LD50: iv, LD50, rabbits
rabbits = assay: Hypnotic effect in rabbits (method of Janssen et al.); type: in vivo; settings: for minimal effective dose: Oryctolagus cuniculus, iv, read-out: Hmin; for Mean duration of sleep: i.v., in the case of dose Hmin
Description: (§1) The hypnotic activity is measured by the method of Janssen et al. (J. Med. Chem. 8, 220/1965/). Ketalar/2-(2-chlorophenyl)-2-methyl-amino-cyclohexanone/ and Hexobarbital (5-methyl-5-hexenyl-barbituric acid) were applied as reference compounds.

[2] = Acute toxicity (LD50) in mice; settings: mouse, in vivo, iv
rats = assay: Hypnotic effect in rats (method of Janssen et al.); type: in vivo; settings: for ED50: Rattus norvegicus, iv, read-out: HD50 (the source's name); for Mean duration of sleep: i.v., in the case of dose HD50
Description: as §1

mice [3] = assay: Hypnotic effect in mice (method of Janssen et al.); type: in vivo; settings: for minimal effective dose / ED50: Mus musculus, iv; for minimal effective dose: 0.05 h, read-out: Hmin (minimal hypnotic dose inducing sleep in all animals for a period exceeding 3 minutes); for minimal effective dose / Mean duration of sleep: i.v.; for ED50: read-out: HD50 (dose inducing sleep in 50 percent of the animals)
Description: as §1

[4] = Acute toxicity (LD50) in rats; settings: rat, in vivo, iv
[5] = Postnarcotic period following awakening and adverse effects; type: in vivo; settings: postnarcotic period following awakening
mice [6] = assay: Acute toxicity (LD50) in mice; settings: mice, Tables 1 and 2

CNC1(c2ccccc2Cl)CCCCC1=O (stereo not drawn) [Ketalar, 2-(2-chlorophenyl)-2-methyl-amino-cyclohexanone]
mortality ([1]; 50 mg/kg): 80% | LD50 [1]: < 50 mg/kg | minimal effective dose (rabbits): 25 mg/kg | Mean duration of sleep (rabbits): 14 min | LD50 [2]: 62 mg/kg | ED50 (rats): 8 mg/kg | Mean duration of sleep (rats): 1.9 min | minimal effective dose (mice [3]): 25 mg/kg | ED50 (mice [3]): 14.5 mg/kg | Mean duration of sleep (mice [3]; in the case of dose HD50): 1.7 min | Mean duration of sleep (mice [3]; in the case of dose Hmin): 5.0 min | LD50 [4]: 39.4 mg/kg

CN1C(=O)NC(=O)C(C)(C2=CCCCC2)C1=O (stereo not drawn) [Hexobarbital, 5-methyl-5-hexenyl-barbituric acid]
LD50 [2]: 118 mg/kg | ED50 (rats): 17.5 mg/kg | Mean duration of sleep (rats): 4.45 min | minimal effective dose (mice [3]): 45 mg/kg | ED50 (mice [3]): 25 mg/kg | Mean duration of sleep (mice [3]; at a dose of 40 mg/kg): 2.6 min | Mean duration of sleep (mice [3]; in the case of dose HD50): 4.1 min | Mean duration of sleep (mice [3]; in the case of dose Hmin): 7.2 min | LD50 [4]: 125 mg/kg

Cc1cc2n(n1)C1(CCCCC1)N(C)N(C)C2=O [Example 5, Spiro[cyclohexane-1,7'-/6,7-dihydro-2,5,6-trimethylpyrazolo[1,5-d][1,2,4]triazin-4(5H)-one/]]
LD50 [1]: ~325 mg/kg | adverse effects of the postnarcotic period [5]: devoid of any adverse effects | minimal effective dose (rabbits): 25 mg/kg | Mean duration of sleep (rabbits): 6 min | toxicity compared with reference substances (mice [6]): substantially lower than that of any of the above reference substances | LD50 [2]: 192 mg/kg | ED50 (rats): 16 mg/kg | therapeutic index compared with reference substances (rats; Table 3): more advantageous in both instances | Mean duration of sleep (rats): 1.5 min | minimal effective dose (mice [3]): 25 mg/kg | ED50 (mice [3]): 17.5 mg/kg | hypnotic effect compared with Hexobarbital and Ketalar (mice [3]; Tables 1 and 2, listed as compound of the invention): superior to that of Hexobarbital; also recorded: in the same range as that of Ketalar | Mean duration of sleep (mice [3]; in the case of dose HD50): 2.8 min | Mean duration of sleep (mice [3]; in the case of dose Hmin): 6.75 min | LD50 [4]: 275 mg/kg
